Data set [1] concerns the target T1, Nonstructural protein 5 (Dengue virus, UniProt V5TFZ2). Nature of the data set: Inhibition of DENV3 NS5 RdRp using ss-RNA PolyC as template and GTP as substrate assessed as decrease in dsRNA levels after 1 hr by PicoGreen-based fluorescence assay. Also on record: species or system dengue virus type 3.
In data set [2] the target is T1, Nonstructural protein 5. Nature of the data set: Mixed type inhibition of DENV3 NS5 RdRp using increasing concentration of GTP as substrate assessed as free enzyme after 1 hr in presence of ss-RNA PolyC template by Lineweaver-Burk double reciprocal plot analysis. Also on record: species or system dengue virus type 3.
A short description of data set [3]: Induction of colloidal aggregate formation in aqueous medium at 50 uM measured for 5 mins by light scattering-based photon correlation spectroscopy. The class given is physicochemical. The settings on record: buffer.
Data set [4] deals with T1, Nonstructural protein 5. The data set is described as follows: Mixed type inhibition of DENV3 NS5 RdRp using increasing concentration of GTP as substrate assessed as enzyme-substrate complex after 1 hr in presence of ss-RNA PolyC template by Lineweaver-Burk double reciprocal plot analysis. Also on record: species or system dengue virus type 3.
Data set [5] concerns the target T1, Nonstructural protein 5. The data set is described as follows: Binding affinity to DENV3 NT-647-NHS labeled NS5 RdRp after 1 hr by microscale thermophoresis method. Also on record: species or system dengue virus type 3.
Data set [6] concerns the target T1, Nonstructural protein 5. Nature of the data set: Mixed type inhibition of DENV3 NS5 RdRp using increasing concentration of ss-RNA PolyC as template assessed as free enzyme after 1 hr in presence of GTP substrate by Lineweaver-Burk double reciprocal plot analysis. Also on record: species or system dengue virus type 3.
In data set [7] the target is T1, Nonstructural protein 5. Nature of the data set: Mixed type inhibition of DENV3 NS5 RdRp using increasing concentration of ss-RNA PolyC as template assessed as enzyme-substrate complex after 1 hr in presence of GTP substrate by Lineweaver-Burk double reciprocal plot analysis. Also on record: species or system dengue virus type 3.
Data set [8] in a line: Cytotoxicity against African green monkey Vero E6 cells by Cell Titer-blue method. The settings on record: chlorocebus sabaeus. The class given is cell-based, Vero C1008.
Data set [9] concerns the target T1, Nonstructural protein 5. The data set is described as follows: Inhibition of DENV3 full length NS5 RdRp assessed as decrease in dsRNA levels preincubated for 20 mins followed by ss-RNA and ATTO-CTP, ATP, GTP and UTP addition measured after 120 mins by FAPA assay. Also on record: species or system dengue virus type 3.

The structures appear in SMILES notation. A value given as a limit tells only on which side of the number the result lay.

As usually defined, the IC50 is the concentration that inhibits the measured activity by half. As usually defined, the Ki is the dissociation constant of the complex between target and ligand, obtained from inhibition or displacement. A word on the Kd: it is the free concentration of one partner at which half of the binding sites on the other are occupied at equilibrium, for simple one-to-one binding. As usually defined, the CC50 is the concentration giving 50% cytotoxicity.

T1 sequence (V5TFZ2 whole entry): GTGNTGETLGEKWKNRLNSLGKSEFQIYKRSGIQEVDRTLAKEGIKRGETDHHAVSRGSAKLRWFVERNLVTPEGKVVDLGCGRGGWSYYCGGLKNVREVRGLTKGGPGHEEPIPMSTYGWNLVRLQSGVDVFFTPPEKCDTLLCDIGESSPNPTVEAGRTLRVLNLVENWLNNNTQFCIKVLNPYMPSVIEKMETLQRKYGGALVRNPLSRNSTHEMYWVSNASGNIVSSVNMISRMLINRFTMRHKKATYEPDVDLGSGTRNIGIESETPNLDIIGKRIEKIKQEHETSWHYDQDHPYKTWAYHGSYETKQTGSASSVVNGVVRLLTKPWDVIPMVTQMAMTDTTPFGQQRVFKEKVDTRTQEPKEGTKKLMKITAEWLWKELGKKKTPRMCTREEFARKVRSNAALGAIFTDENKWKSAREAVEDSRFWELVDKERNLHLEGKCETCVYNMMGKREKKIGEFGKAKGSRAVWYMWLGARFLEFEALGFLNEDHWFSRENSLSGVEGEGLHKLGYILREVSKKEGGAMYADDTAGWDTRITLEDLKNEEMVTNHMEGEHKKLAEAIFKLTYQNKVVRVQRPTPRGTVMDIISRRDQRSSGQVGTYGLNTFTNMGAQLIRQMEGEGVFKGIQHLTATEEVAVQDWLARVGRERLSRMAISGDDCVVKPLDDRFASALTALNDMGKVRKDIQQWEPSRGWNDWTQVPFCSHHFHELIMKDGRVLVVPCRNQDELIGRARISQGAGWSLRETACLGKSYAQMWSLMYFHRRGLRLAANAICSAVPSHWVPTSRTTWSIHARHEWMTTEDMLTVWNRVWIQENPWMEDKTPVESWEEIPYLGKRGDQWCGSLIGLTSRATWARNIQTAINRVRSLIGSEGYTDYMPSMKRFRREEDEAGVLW

Take `CN1c2ccc(Oc3cccc(Br)c3)cc2C(OC(=O)c2ccccc2)=CS1(=O)=O`: the IC50 at Nonstructural protein 5 [1] was determined as 2.6 µM.
As for `COc1cccc(Oc2ccc3c(c2)C(OC(=O)c2ccccc2)=CS(=O)(=O)N3)c1`, the half-maximal inhibitory concentration (IC50) at Nonstructural protein 5 [1] stood at 20.3 µM.
As to `CCOC1=CS(=O)(=O)Nc2ccc(Oc3ccccc3Br)cc21`, the IC50 on Nonstructural protein 5 [1] was 41.5 µM.
Same read-out and setting: in the case of `CN1c2c(C(=O)Nc3ccc(NS(C)(=O)=O)cc3)nn(-c3ccc(Cl)cc3)c2-c2ccccc2S1(=O)=O` it was 13.6 µM; in that of `COc1ccc(C(=O)OC2=CS(=O)(=O)Nc3ccc(Oc4cccc(Br)c4)cc32)cc1[N+](=O)[O-]`, 4.7 µM; in that of `CN1c2c(C(=O)Nc3ccc(NS(C)(=O)=O)cc3)nn(-c3cccc(F)c3)c2-c2ccccc2S1(=O)=O`, 17.3 µM.
As for `O=C(OC1=CS(=O)(=O)Nc2ccc(Oc3cccc(Br)c3)cc21)c1cccc([N+](=O)[O-])c1`, the concentration for half-maximal inhibition (IC50) on Nonstructural protein 5 [1] was 8.4 µM.
As for `O=C(OC1=CS(=O)(=O)Nc2ccc(Oc3cccc(Br)c3)cc21)c1ccc(F)c(F)c1`, the IC50 at Nonstructural protein 5 [1] worked out at 0.9 µM.
Consider `O=C(OC1=CS(=O)(=O)Nc2ccc(Oc3ccccc3Br)cc21)c1ccc(F)c(F)c1`, for which the inhibition constant (Ki) at Nonstructural protein 5 [2] was determined as 0.252 µM; at Nonstructural protein 5 [4], 1.58 µM; at Nonstructural protein 5 [6], 1.54 µM; on Nonstructural protein 5 [7] it was 4.33 µM. For the same compound, the Activity entry in data set [3] is recorded as “Not Active”. Moreover, the affinity on Nonstructural protein 5 [5], expressed as Kd, was 1.1 µM. The IC50 at Nonstructural protein 5 [1] was found to be 0.6 µM. The same compound yielded a cytotoxic concentration (CC50) in data set [8] of 80 µM.
As to `O=C(OC1=CS(=O)(=O)Nc2ccc(Oc3ccccc3Br)cc21)c1ccccc1`, on Nonstructural protein 5 [1], the IC50 stood at 30.8 µM.
In the case of `Cc1ccc(-n2nc(C(=O)Nc3ccc(NS(C)(=O)=O)cc3)c3c2-c2ccccc2S(=O)(=O)N3C)cc1`, the 50% inhibitory concentration (IC50) at Nonstructural protein 5 [1] turned out to be 14.1 µM.
With `O=C(O)c1cc(Oc2cccc(Br)c2)ccc1NS(=O)(=O)c1ccc([N+](=O)[O-])cc1`, the 50% inhibitory concentration (IC50) at Nonstructural protein 5 [1] was determined as 1.7 µM.
`COc1cc(C)c(C(=O)NS(=O)(=O)c2cccc3cccnc23)cc1-c1ccc(C#CCO)s1`: the IC50 on Nonstructural protein 5 [9] is 0.016 µM.
Turning to `O=C(OC1=CS(=O)(=O)Nc2ccc(Oc3cccc(F)c3)cc21)c1ccccc1`, at Nonstructural protein 5 [1], the IC50 is 7 µM.
`O=C1CCN(C(=O)c2ccccc2)c2ccc(Oc3ccccc3Br)cc21`: the IC50 on Nonstructural protein 5 [1] was over 50 µM.
As to `COc1ccc(C(=O)OC2=CS(=O)(=O)Nc3ccc(Oc4ccccc4Br)cc32)cc1[N+](=O)[O-]`, the IC50 at Nonstructural protein 5 [1] worked out at 6.3 µM.
Regarding `O=C(O)c1cc(Oc2cccc(Br)c2)ccc1NS(=O)(=O)c1ccccc1`, the concentration for half-maximal inhibition (IC50) on Nonstructural protein 5 [1] is 4.5 µM.
Turning to `O=C(OC1=CS(=O)(=O)Nc2ccc(Oc3ccc(Br)cc3)cc21)c1ccccc1`, the IC50 at Nonstructural protein 5 [1] is 4.7 µM.
On to `O=C1CS(=O)(=O)N(C(=O)c2ccccc2)c2ccc(Oc3ccccc3Br)cc21`, for which the concentration for half-maximal inhibition (IC50) on Nonstructural protein 5 [1] was 11.4 µM.
With `CC(C)(C)c1cccc(Oc2ccc3c(c2)C(OC(=O)c2ccccc2)=CS(=O)(=O)N3)c1`, the concentration for half-maximal inhibition (IC50) at Nonstructural protein 5 [1] is 15.8 µM.
`CCc1cccc(Oc2ccc3c(c2)C(OC(=O)c2ccccc2)=CS(=O)(=O)N3)c1`: the half-maximal inhibitory concentration (IC50) at Nonstructural protein 5 [1] is 6.9 µM.
As for `O=C(OC1=CS(=O)(=O)Nc2ccc(Oc3cccc(Br)c3)cc21)c1ccccc1`, the IC50 at Nonstructural protein 5 [1] was 7 µM.
For the compound `COC1=CS(=O)(=O)N(C(=O)c2ccccc2)c2ccc(Oc3ccccc3Br)cc21`, the concentration for half-maximal inhibition (IC50) at Nonstructural protein 5 [1] came out at 46.2 µM.
Take `COC1=CS(=O)(=O)Nc2ccc(Oc3ccccc3Br)cc21`: the IC50 on Nonstructural protein 5 [1] is over 50 µM.

Values taken from ChEMBL document CHEMBL4251565, “Functionalized 2,1-benzothiazine 2,2-dioxides as new inhibitors of Dengue NS5 RNA-dependent RNA polymerase” (Eur J Med Chem, 2018).
